Measurements as given in patent publication US5750555A, “Bis-indolyl maleinimide or indolopyrrolo carbazole containing an amino acid as PKC inhibitors” (Goedecke Aktiengesellschaft, priority 1992, dated 1998).
Like-named read-outs stand apart in the source and are kept apart here. Where a SMILES comes first, the peptide text is derived from it. The star is where a group is joined. X1 = Cn1cc(C2=C(c3cn(CCC(=O)*)c4ccccc34)C(=O)NC2=O)c2ccccc21

Tests used:
[1] = target: protein kinase C (PKC); test: Enzyme test PKC with peptide substrate [Ser^25] PKC (19-31), phosphorus^32 phosphate incorporation; type: biochemical, rat
Protocol: The enzyme protein kinase C (PKC) is purified from rat brain. Its activity is determined by way of the incorporation of phosphorus ^32 -labelled phosphate into a synthetic peptide which is derived from the PKC "pseudosubstrate" sequence (arnino acids 19 to 31 of the PKC sequence with alanine in position 25 substituted by serine). A reaction batch of 200 μL contains the following components: 50 mM Tris HCl, pH 7.5, 5 mM MgCl2, 1 mM DTT, 4 μM free Ca^2+, 10 μM ATP, 1 μg phosphatidylserine, 0.2 μg 1,2-diolein, as well as 0.3 μg peptide substrate. The batch is preincubated for 4 minutes at 30° C. and the reaction then started by the addition of 5 nm PKC. After incubation for 5 minutes at 30° C., the reaction is stopped with 0.73% H3 PO4, and the sample then filtered over a nitrocellulose filter (0.1 μm pore size). The phosphate incorporation is determined by means of Cerenkov counting in a scintillation counter. […]

[2] = target: Myosin Light Chain Kinase; test: Inhibition of myosin light chain kinase (selectivity test); type: biochemical; conditions: Table 2; for IC50: Myosin Light Chain Kinase, read-out: Inhibition of the Protein Kinases IC50: MLC Kinase; for Ratio of IC50 MLC Kinase/IC50 C Kinase: selectivity ratio MLC Kinase over PKC
Protocol: The selectivity of these compounds with regard to other kinases, such as myosin light chain kinase, was tested on the basis of some examples. These values are set out in the following Table 2.

[3] = Table 1, PKC purified from rat brain, 10 μM ATP, pH 7.5, 30° C., 5 minutes, read-out: Inhibition IC50, Enzyme Test PKC With Peptide Substrate [Ser^25] PKC (19-31)
[4] = Table 2, PKC with peptide substrate [Ser^25] PKC (19-31), read-out: Inhibition of the Protein Kinases IC50: PKC

Molecule | IC50 [1, 3] | IC50 [1, 4] | IC50 [2] | Ratio of IC50 MLC Kinase/IC50 C Kinase [2]
12-[2-(L-Alanyl-L-arginyl)-aminopropyl]-6,7,12,13-tetrahydro-13-methyl-5,7- dioxo-5H-indolo[2,3-a]pyrrolo-[3,4-c]carbazole [Example 9] | 190 nM | – | – | –
C[C@H](NC(=O)[C@H](Cc1ccccc1)NC(=O)[C@H](CCCNC(=N)N)NC(=O)[C@H](CC(N)=O)NC(=O)[C@H](CCCCN)NC(=O)CCn1cc(C2=C(c3cn(C)c4ccccc34)C(=O)NC2=O)c2ccccc21)C(N)=O [Example 7a, 3-[3-[4-(1-methylindol-3-yl)-1H-pyrrole-2,5-dion-3-yl]-indol-1-yl)-propionyl-L-lysyl-L-asparaginyl-L-arginyl-L-phenylalanyl-L-alaninamide] (X1-KNRFA-NH2) | > 100 nM | – | – | –
C[C@H](N)C(=O)NCCCCCn1c2ccccc2c2c3c(c4c5ccccc5n(C)c4c21)C(=O)NC3=O [Example 10a, 12-[2-(5-L-alanyl)-aminopentyl]-6,7,12,13-tetrahydro-13-methyl-5,7-dioxo-5H-indolo[2,3-a]pyrrolo-[3,4-c]carbazole] | 53 nM | – | – | –
C[C@H](NC(=O)CCn1cc(C2=C(c3cn(C)c4ccccc34)C(=O)NC2=O)c2ccccc21)C(=O)O [Example 5, 3-[3-[4-(1-Methylindol-3-yl)-1H-pyrrole-2,5-dion-3-yl]-indol-1-yl)-propionyl-L-alanine] | 580 nM | – | – | –
C[C@H](NC(=O)CNC(=O)[C@H](CO)NC(=O)CCn1cc(C2=C(c3cn(C)c4ccccc34)C(=O)NC2=O)c2ccccc21)C(N)=O [Example 7d, 3-[3-[4-(1-methylindol-3-yl)-1H-pyrrole-2,5-dion-3-yl)-indol-1-yl)-propionyl-L-serylglycyl-L-alaninamide] | > 1000 nM | – | – | –
C[C@H](NC(=O)CCn1cc(C2=C(c3cn(C)c4ccccc34)C(=O)NC2=O)c2ccccc21)C(=O)NCC(=O)N[C@@H](CCCCN)C(N)=O [Example 7, 3-[3-[4-(1-Methylindol-3-yl)-1H-pyrrole-2,5-dion-3-yl]-indol-1-yl)-propionyl-L-alanylglycyl-L-lysinamide] | 230 nM | – | – | –
C[C@H](NC(=O)CNC(=O)CNC(=O)CCn1cc(C2=C(c3cn(C)c4ccccc34)C(=O)NC2=O)c2ccccc21)C(N)=O [Example 7b, 3-[3-[4-(1-methylindol-3-yl)-1H-pyrrole-2,5-dion-3-yl]-indol-1-yl)-propionylglycylglycyl-L-alaninamide] | > 100 nM | – | – | –
C[C@H](N)C(=O)NCCCCn1c2ccccc2c2c3c(c4c5ccccc5n(C)c4c21)C(=O)NC3=O [Example 10, 12-[2-(4-L-Alanyl)-aminobutyl]-6,7,12,13-tetrahydro-13-methyl-5,7-dioxo-5H-indolo[2,3-a]pyrrolo[3,4-c]-carbazole] | 9.6 nM | – | – | –
C[C@H](N)C(=O)NCCCCCn1cc(C2=C(c3cn(C)c4ccccc34)C(=O)NC2=O)c2ccccc21 [Example 2c, 2-[(1-Methyl)-1H-indol-3-yl]-3-[1-(5-L-alanylaminopentyl)-1H-indol-3-yl]-maleinimide] | > 100 nM | – | – | –
Cn1cc(C2=C(c3cn(CCC(=O)NCC(=O)NCC(=O)N[C@@H](CO)C(N)=O)c4ccccc34)C(=O)NC2=O)c2ccccc21 [Example 7c, 3-[3-[4-(1-methylindol-3-yl)-1H-pyrrole-3,5-dion-3-yl]-indol-1-yl]-propionylglycylglycyl-L-serylamide] | 200 nM | – | – | –
Cn1cc(C2=C(c3cn(CCCNC(=O)CCCCNC(=O)[C@@H](N)CO)c4ccccc34)C(=O)NC2=O)c2ccccc21 [Example 3, 2-[(1-Methyl)-1H-indol-3-yl]-3-[1-[3-(5-L-serylaminopentanoyl)-aminopropyl)-1H-indol-3-yl)-maleinimide] | 61 nM | – | – | –
Cn1cc(C2=C(c3cn(CCCNC(=O)CCN)c4ccccc34)C(=O)NC2=O)c2ccccc21 [Example 1b, 2-[(1-Methyl)-1H-indol-3-yl]-3-[1-(3-β-alanylaminopropyl)-1H-indol-3-yl]-maleinimide] | 23 nM | 23 nM | 2400 nM | 104
Cn1cc(C2=C(c3cn(CCCCCCCCCNC(=O)[C@@H](N)CO)c4ccccc34)C(=O)NC2=O)c2ccccc21 [Example 2e, 2-[(1-Methyl)-1H-indol-3-yl]-3-[1-(9-L-serylaminononyl)-1H-indol-3-yl]-maleinimide] | > 1000 nM | – | – | –
C[C@H](N)C(=O)NCCCCCCCCn1cc(C2=C(c3cn(C)c4ccccc34)C(=O)NC2=O)c2ccccc21 [Example 2f, 2-[(1-Methyl)-1H-indol-3-yl]-3-[1-(9-L-alanylaminooctyl)-1H-indol-3-yl)-maleinimide] | 330 nM | – | – | –
C[C@H](N)C(=O)NCCCCn1cc(C2=C(c3cn(C)c4ccccc34)C(=O)NC2=O)c2ccccc21 [Example 2a, 2-[(1-Methyl)-1H-indol-3-yl]-3-[1-(4-L-alanylaminobutylyl)-1H-indol-3-yl)-maleinimide] | 25 nM | – | – | –
C[C@H](N)C(=O)NCCC(=O)NCCCn1cc(C2=C(c3cn(C)c4ccccc34)C(=O)NC2=O)c2ccccc21 [Example 4a, 2-[(1-Methyl)-1H-indol-3-yl]-3-[1-[3-(L-alanyl-β-alanyl)-aminopropyl]-1H-indol-3-yl)-maleinimide] | 18 nM | – | – | –
2-[(1-Methyl)-1H-indol-3-yl]-3-[1-(3-β-alanylamino-propyl)-1H-indol-3-yl]-maleinimide [Example 1a] | 6.3 nM | 6.3 nM | 1900 nM | 302
C[C@H](N)C(=O)NCCCn1c2ccccc2c2c3c(c4c5ccccc5n(C)c4c21)C(=O)NC3=O [Example 8, 12-[2-(3-L-Alanyl)-aminopropyl)-6,7,12,13-tetrahydro-13-methyl-5,7-dioxo-5H-indolo[2,3-a]pyrrolo[3,4-c]-carbazole] | 38 nM | – | – | –
C[C@H](N)C(=O)NCCCCCCCCCn1cc(C2=C(c3cn(C)c4ccccc34)C(=O)NC2=O)c2ccccc21 [Example 2d, 2-[(l-Methyl)-1H-indol-3-yl]-3-[1-(9-L-alanylaminononyl)-1H-indol-3-yl)-maleinimide] | > 1000 nM | – | – | –
C[C@H](N)C(=O)NCC(=O)NCCCn1cc(C2=C(c3cn(C)c4ccccc34)C(=O)NC2=O)c2ccccc21 [Example 4, 2-[(1-Methyl)-1H-indol-3-yl)-3-[1-[3-(L-alanylglycyl)-aminopropyl]-1H-indol-3-yl]] | 36 nM | – | – | –
C[C@@H](N)C(=O)NCCCn1cc(C2=C(c3cn(C)c4ccccc34)C(=O)NC2=O)c2ccccc21 [Example 2, 2-[(1-Methyl)-1H-indol-3-yl)-3-[1-(3-D-alanylaminopropyl)-1H-indol-3-yl]-maleinimide] | 28 nM | – | – | –
Cn1cc(C2=C(c3cn(CCCCNC(=O)[C@@H](N)CCCNC(=N)N)c4ccccc34)C(=O)NC2=O)c2ccccc21 [Example 2b, 2-[(1-Methyl)-1H-indol-3-yl]-3-[1-(4-L-arginylaminobutyl)-1H-indol-3-yl]-maleinimide] | 220 nM | – | – | –
Cn1cc(C2=C(c3cn(CCCN)c4ccccc34)C(=O)NC2=O)c2ccccc21 [A, 3[1(3-aminopropyl)-3-indolyl)-4-(1-methyl-3-indolyl)-1H-pyrrole-2,5-dione, reference compound] | – | 130 nM | 1300 nM | 10
Cn1cc(C2=C(c3cn(CCCNC(=O)[C@@H](N)CO)c4ccccc34)C(=O)NC2=O)c2ccccc21 [Example 1, 2-[(1-Methyl)-1H-indol-3-yl]-3-(1-(3-L-serylaminopropyl)-1H-indol-3-yl)-maleinimide] | 14 nM | 14 nM | 4600 nM | 328
